# Patent publication US20210353668A1, “CALCIUM COMPOSITION” (PerformaNat GmbH, priority 2018, published 2021)
# Test system: Ruminal epithelium of sheep
# Test: Measurement of Ca-flux (45Ca2+ net flux) across ruminal epithelium in the Ussing chamber
# Type: cell-based
# Procedure: Measurement of Ca-Flux Across Ruminal Epithelium in the Ussing-Chamber
# Ruminal epithelium of sheep was mounted in a conventional Ussing chamber. Chambers contained 16 ml of serosal or mucosal buffer, which was circulated and gassed by a gas lift system (5% CO2/95% O2).
# In this experiment 24 chambers were divided into three groups. Group 1 (mucosal buffer containing 1.8 mM CaCl2), group 2 (mucosal buffer containing 3.6 mM CaCl2) and group 3 (containing 7.2 mM CaCl2). The same buffer was present on the serosal side of all chambers (Table 1). Each group (1,2,3) was again divided into two parts. One was defined as control group one as EO group. It is noted that the amounts correspond to a normal Ca^2+ concentration in the rumen (1.8 mM) (referred to as Comparative Example A) and to treated rumen corresponding to the administration of about 13 g Ca (3.6 mM) and 26 g Ca (7.2 mM) (referred to as Examples 1 and 2, respectively).
# After an equilibrating time of around 30 minutes ^45Ca^2+ (40 kBq per 16 ml chamber) was added to either to the mucosal or serosal “hot” side.
# Depending on the group 16 μl ethanol (Control) or 16 μl essential oil (EO) were added to the mucosal side of the chamber. The essential oil used is menthol, and the actual menthol concentration obtained is 50 μM.
# After 70 minutes the first sample from the “cold” side was taken, followed by five samples of each 900 μl which were taken in an interval of 30 minutes. The sample volume was replaced by an aliquot of the respective buffer. Radioactivity was measured using a β-counter (LKB Wallace-Perkin-Elmer, Überlingen, Germany).
# Epithelia were paired after sorting for transepithelial conductance (Gt) and the net calcium flux was calculated from the difference between mucosal to serosal flux and serosal to mucosal flux for paired epithelia.
# The net transport of calcium across the isolated ruminal epithelium was calculated by subtracting the calcium secretion (serosal to mucosal transport) from the calcium absorption (mucosal to serosal transport) reflecting the real absorption of calcium from the rumen to the blood side. For statistical analysis linear mixed effect models for repeated measures were calculated using mucosal calcium concentration and the addition of essential oils as fixed effects and animal as random effect (SAS System, method MIXED PROC). The effects of calcium concentration and the addition of essential oils was calculated as well as their interaction. Furthermore, the effect of sampling time was included to the model. Effects were evaluated for the repeated measures of the consecutive flux periods.
structure (smiles),measurement,setting,value
CC1CCC(C(C)C)C(O)C1 (stereo not shown) [menthol],calcium flux compared to the control (in words),"all three Ca concentrations (1.8, 3.6, 7.2 mM), menthol present",increased
same,increase of calcium absorption by addition of EO,mucosal Ca 1.8 mM,6.06 nmol/cm^2/h
same,increase of calcium absorption by addition of EO,mucosal Ca 3.6 mM,2.52 nmol/cm^2/h
same,increase of calcium absorption by addition of EO,mucosal Ca 7.2 mM,8.22 nmol/cm^2/h
